Where two headings read alike, the source gives them in different places.
Assays:
[1] = known AO substrates, human, literature; cited from earlier work
[2] = Human liver S-9 intrinsic clearance; format: in vitro ADME; conditions: for Human Liver S-9 Intrinsic Clearance _1 / Human Liver S-9 Intrinsic Clearance _2: 2.5 mg/mL S-9, 1 μM; for microsomal CLint at 1 μM / CLint scaled at 1 μM: human; for CLint scaled at 1 μM: s9
Description: (§1) Incubations were performed in 1 mg/mL human liver cytosol with high aldehyde oxidase (AO)/xanthine oxidase (XO) activity or 2.5 mg/mL human liver S-9 fraction with high AO/XO activity at 1 μM concentration of test compound in duplicate, and the concentration-time course of test compound depletion was determined after withdrawing samples from the incubation at assay time points followed by liquid chromatography with tandem mass spectrometry analysis. An organic solvent was used to terminate incubations.
(§2) These available known AO substrates along with the test compounds were analyzed using three in vitro systems (pooled human liver cytosol, liver S-9 fractions and human hepatocytes isolated from livers perfused with HTK media). Scaled unbound intrinsic clearances were calculated for the test compounds/new chemical entities and were compared to the in vivo unbound intrinsic clearances of the known AO substrates.

[3] = Human liver cytosol intrinsic clearance; format: in vitro ADME; conditions: for CLint scaled at 1 μM / microsomal CLint at 1 μM: human, cytosol
Description: as §1, §2

[4] = Human hepatocyte intrinsic clearance; format: in vitro ADME; conditions: for CLint scaled at 1 μM / hepatocyte CLint at 1 μM: human, hepatocytes
Description: Incubations were performed in 0.5 million hepatocytes cells/mL at 1 μM concentration of test compound in duplicate with rat, human, dog, monkey, or mouse hepatocytes, and the concentration-time course of test compound depletion was determined after withdrawing samples from the incubation at assay time points followed by liquid chromatography with tandem mass spectrometry analysis. An organic solvent was used to terminate incubations.
as §2

[5] = tested on: MCP-1 production in primary murine microglial cells; assay: MCP-1 ELISA, primary mouse microglia after CSF-1 stimulation; format: cell-based; conditions: primary murine microglia, 100 ng/mL CSF-1 24 hours
Description: Primary mouse microglia were suspended at a concentration of 5×10^5 cells/mL and 100 μL of this cell suspension was added to the inner 60 wells of three 96-well plates. Microglia cells were allowed to rest overnight at 37° C., 5% CO2. […] Cells were then stimulated with 100 ng/mL recombinant mouse CSF-1 for 24 hours. After stimulation, the culture supernatant was removed from each well and aliquoted into two different 96-well plates for subsequent ELISA assays. Plates were fixed with 4% PFA for future immunocytochemistry analysis.

primary murine microglia = assay: Immunostaining of primary microglia (Iba1+ area, DAPI+ nuclei) after CSF-1 stimulation; format: cell-based, mouse; conditions: for IC50: primary murine microglia, CSF-1 stimulation
Description: Primary mouse microglia were suspended at a concentration of 5×10^5 cells/mL and 100 μL of this cell suspension was added to the inner 60 wells of three 96-well plates. Microglia cells were allowed to rest overnight at 37° C., 5% CO2. […] Cells were then stimulated with 100 ng/mL recombinant mouse CSF-1 for 24 hours. After stimulation, the culture supernatant was removed from each well and aliquoted into two different 96-well plates for subsequent ELISA assays. Plates were fixed with 4% PFA for future immunocytochemistry analysis. Following the stimulation, cells were fixed with 4% PFA for 20 minutes at room temperature. Cells were then rinsed in PBS, washed 3×5 minutes in 0.2% PBT (0.2% Triton X-100 in PBS) and blocked with 10% donkey serum/0.2% PBT for 1 hour at room temperature. […] After staining, plates were imaged on the IN Cell Analyzer 2200 with 9 fields of view acquired per well. […] A one-way ANOVA was used to determine the statistical significance of differences between samples. […] Following a microglial stimulation, immunocytochemistry was completed with Iba1, Ki67, and DAPI to determine microglial morphology, proliferative state, and number. InCell imaging microsope and analysis software was used to quantify Iba1^+ area, and the number of DAPI^+ nuclei within the cultures.

[6] = 1 mg/mL cytosol, 1 μM, replicate 1
[7] = 1 mg/mL cytosol, 1 μM, replicate 2
[8] = Human Liver Cytosol Intrinsic Clearance _1
[9] = Human Liver Cytosol Intrinsic Clearance _2
[10] = s9, 2.5 mg/mL S-9, 1 μM, replicate 1, read-out: Human Liver S-9 Intrinsic Clearance _1
[11] = s9, 2.5 mg/mL S-9, 1 μM, replicate 2, read-out: Human Liver S-9 Intrinsic Clearance _2
[12] = scaled data, read-out: Human Liver S-9 in vitro scaled Intrinsic Clearance
[13] = 1 mg/mL cytosol, 1 μM, replicate 1, read-out: Human Liver Cytosol Intrinsic Clearance _1
[14] = 1 mg/mL cytosol, 1 μM, replicate 2, read-out: Human Liver Cytosol Intrinsic Clearance _2
[15] = scaled data, read-out: Human Liver Cytosol in vitro scaled Intrinsic Clearance
[16] = raw data, AO calibration set, read-out: Human Hepatocytes Intrinsic Clearance
[17] = scaled data, read-out: Human Hepatocytes in vitro scaled Intrinsic Clearance

SMILES	Estimated Free in vivo Intrinsic Clearance (Ref) [1]	Human Liver S-9 Intrinsic Clearance _1 ([2]; replicate 1)	Human Liver S-9 Intrinsic Clearance _2 ([2]; replicate 2)	Human Liver S-9 in vitro scaled Intrinsic Clearance ([2]; scaled data)	Human Liver Cytosol Intrinsic Clearance _1 [3, 6]	Human Liver Cytosol Intrinsic Clearance _2 [3, 7]	Human Liver Cytosol in vitro scaled Intrinsic Clearance ([3]; scaled data)	Human Hepatocytes Intrinsic Clearance ([4]; raw data, AO calibration set)	Human Hepatocytes in vitro scaled Intrinsic Clearance ([4]; scaled data)	CLint scaled at 1 μM [3]	microsomal CLint at 1 μM [3, 8]	microsomal CLint at 1 μM [3, 9]	CLint scaled at 1 μM [4]	hepatocyte CLint at 1 μM [4]	other results
CC[C@H]1OC(=O)[C@H](C)C(=O)[C@H](C)[C@@H](O[C@@H]2O[C@H](C)C[C@H](N(C)C)[C@H]2O)[C@](C)(OC)C[C@@H](C)C(=O)[C@H](C)[C@H]2N(C3CN([C@H](C)c4ccnc5ncccc45)C3)C(=O)O[C@]12C [PF-945863]	170	6.78 μL/min/mg protein	6.22 μL/min/mg protein	20.1 mL/min/kg	8.2 μL/min/mg protein	6.9 μL/min/mg protein	15.4 mL/min/kg	10.7 μL/min/10^6 cells	27.2 mL/min/kg	–	–	–	–	–	–
Nc1nc(OCc2ccccc2)c2nc[nH]c2n1 [O6-benzylguanine]	360	6.66 μL/min/mg protein	5.97 μL/min/mg protein	19.5 mL/min/kg	5.6 μL/min/mg protein	4.9 μL/min/mg protein	10.7 mL/min/kg	13.6 μL/min/10^6 cells	34.6 mL/min/kg	–	–	–	–	–	–
[2H]c1ccc2ncn(Cc3cc(OC)c4c(c3)O[C@@H](C)[C@H](c3ccc(OC)nc3)O4)c2n1 (racemic) [Compound 1, (+/−)-3-(((trans)-8-methoxy-2-(6-methoxypyridin-3-yl)-3-methyl-2,3-dihydrobenzo[b][1,4]dioxin-6-yl)methyl)-3H-imidazo[4,5-b]pyridine-5-d]	–	–	–	–	–	–	–	–	–	6.9 mL/min/kg	3.4 µL/min/mg	3.3 µL/min/mg	26.2 mL/min/kg	10.3 µL/min/1e6 cells	–
OCCn1cc(-c2cnc3nnn(Cc4ccc5ncccc5c4)c3n2)cn1 [PF-4217903]	46	–	–	–	–	–	–	–	–	–	–	–	–	–	microsomal CLint at 1 μM [2, 10]: < 1.1 µL/min/mg; microsomal CLint at 1 μM [2, 11]: < 1.1 µL/min/mg; CLint scaled at 1 μM [2, 12]: < 3.4 mL/min/kg; microsomal CLint at 1 μM [3, 13]: < 0.7 µL/min/mg; microsomal CLint at 1 μM [3, 14]: < 0.7 µL/min/mg; CLint scaled at 1 μM [3, 15]: < 1.5 mL/min/kg; hepatocyte CLint at 1 μM [4, 16]: 4.08 µL/min/1e6 cells; CLint scaled at 1 μM [4, 17]: 10.4 mL/min/kg
CN(C)CCNC(=O)c1cccc2cc3ccccc3nc12 [DACA]	3600	19.0 μL/min/mg protein	17.7 μL/min/mg protein	56.5 mL/min/kg	46.2 μL/min/mg protein	46.8 μL/min/mg protein	96.5 mL/min/kg	49.1 μL/min/10^6 cells	125 mL/min/kg	–	–	–	–	–	–
[2H]c1ccc2nc([2H])n(Cc3cc(OC)c4c(c3)O[C@@H](C)[C@H](c3ccc(OC)nc3)O4)c2n1 (racemic) [Compound 2, (+/−)-3-(((trans)-8-methoxy-2-(6-methoxypyridin-3-yl)-3-methyl-2,3-dihydrobenzo[b][1,4]dioxin-6-yl)methyl)-3H-imidazo[4,5-b]pyridine-2,5-d2]	–	–	–	–	–	–	–	–	–	4.3 mL/min/kg	1.5 µL/min/mg	1.7 µL/min/mg	16.2 mL/min/kg	6.36 µL/min/1e6 cells	–
[2H]c1nc2cccnc2n1Cc1cc(OC)c2c(c1)O[C@H](C)[C@@H](c1ccc(OC)nc1)O2 [Compound 5, 3-(((2R,3R)-8-methoxy-2-(6-methoxypyridin-3-yl)-3-methyl-2,3-dihydrobenzo[b][1,4]dioxin-6-yl)methyl)-3H-imidazo[4,5-b]pyridine-2-d]	–	–	–	–	–	–	–	–	–	2.2 mL/min/kg	0.7 µL/min/mg	1.4 µL/min/mg	19.7 mL/min/kg	7.74 µL/min/1e6 cells	CLint scaled at 1 μM [2]: 3.6 mL/min/kg; microsomal CLint at 1 μM ([2]; s9, Human Liver S-9 Intrinsic Clearance _1): < 1.1 µL/min/mg; microsomal CLint at 1 μM ([2]; s9, Human Liver S-9 Intrinsic Clearance _2): < 1.1 µL/min/mg
N=C(N)NC(=O)c1cnn(-c2cccc3ncccc23)c1C1CC1 [zoniporide]	180	–	–	–	–	–	–	–	–	12.4 mL/min/kg	–	–	33.8 mL/min/kg	13.3 µL/min/1e6 cells	CLint scaled at 1 μM [2]: 18.6 mL/min/kg
[2H]c1nc2cccnc2n1C([2H])([2H])c1cc(OC)c2c(c1)O[C@@H](C)[C@H](c1ccc(OC)nc1)O2 (racemic) [Compound 4, (+/−)-3-(((trans)-8-methoxy-2-(6-methoxypyridin-3-yl)-3-methyl-2,3-dihydrobenzo[b][1,4]dioxin-6-yl)methyl-d2)-3H-imidazo[4,5-b]pyridine-2-d]	–	–	–	–	–	–	–	–	–	3.4 mL/min/kg	1.2 µL/min/mg	2.1 µL/min/mg	19 mL/min/kg	7.45 µL/min/1e6 cells	–
CCNC(=O)OC1CCN(c2nncc3cc(OC)c(OC)cc23)CC1 [carbazeran]	13000	–	–	–	–	–	–	–	–	–	–	–	–	–	–
FC(F)(F)c1ccc(CNc2ccc(Cc3c[nH]c4ncc(Cl)cc34)cn2)cn1 [PLX3397, pexidartinib]	–	–	–	–	–	–	–	–	–	–	–	–	–	–	IC50 ([5]; read-out: IC50, MCP-1 production): 17.4 nM; MCP-1 production ([5]; 3.125-400 nM): significantly reduced MCP-1 production in a concentration dependent manner; Iba1+ area (primary murine microglia; CSF-1 stimulation increases Iba1+ area): significantly abrogated this effect in a concentration dependent manner; number of cells (DAPI+ cells) (primary murine microglia; CSF-1 stimulation increases cell number): reduce this number in a concentration dependent manner; IC50 (primary murine microglia; read-out: IC50 for DAPI (DAPI+ cell number)): 68.2 nM; IC50 (primary murine microglia; read-out: IC50 for Iba1 (Iba1+ area)): 50.4 nM
CCN(C(C)=O)c1cccc(-c2ccnc3c(C#N)cnn23)c1 [zaleplon]	65	–	–	–	–	–	–	–	–	–	–	–	–	–	microsomal CLint at 1 μM [2, 10]: 2.11 µL/min/mg; microsomal CLint at 1 μM [2, 11]: 3.32 µL/min/mg; CLint scaled at 1 μM [2, 12]: 7.1 mL/min/kg; microsomal CLint at 1 μM [3, 13]: 3.1 µL/min/mg; microsomal CLint at 1 μM [3, 14]: 3.4 µL/min/mg; CLint scaled at 1 μM [3, 15]: 6 mL/min/kg; hepatocyte CLint at 1 μM [4, 16]: 7.53 µL/min/1e6 cells; CLint scaled at 1 μM [4, 17]: 19.2 mL/min/kg
CN(Cc1cnc2nc(N)nc(N)c2n1)c1ccc(C(=O)N[C@@H](CCC(=O)O)C(=O)O)cc1 [methotrexate]	0.44	<1.1 μL/min/mg protein	<1.1 μL/min/mg protein	<3.4 mL/min/kg	<0.7 μL/min/mg protein	<0.7 μL/min/mg protein	<1.5 mL/min/kg	<2.7 μL/min/10^6 cells	<6.9 mL/min/kg	–	–	–	–	–	–

— patent publication US11530216B2, “Deuterated colony stimulating factor-1 receptor (CSF-1R) inhibitors” (Genzyme Corporation, priority 2020, dated 2022)
